Test [1] concerns MES (electroshock) seizure in mice. Kind of test: Anti-epilepsy activity, MES test in mouse. It counts as in vivo, ICR mice. On the procedure:
(§1) In the MES test (Ref., G. Villetti et al. Neuropharmacology 40(2001) 866-878), an electrical stimulus (mice: 50 mA, 60 Hz, 0.2 sec, and rats: 150 mA, 60 Hz, 0.2 sec in the test animal) supplied by an 11A Shocker (IITC Life Science Company) was delivered through corneal electrodes. All mice or rats assigned to any electroshock at peak time were treated with each test compound sample which was dissolved in 20% tween 80 prepared by saline solvent applied orally before the test. […] Three doses of the test sample were administered orally to 9-18 animals (3-6 mice per dose) for evaluating the respective doses at which 50% of the animals were protected from seizure (ED50). The ED50 value (median effective dose) was calculated by Litchfield and Wicoxon log-probit method which is a dose-response relationship. Experimental animals, male ICR mice and male SD rats, were purchased from OrientBio, Samtako, or Nara Biotech, Korea, and housed in cages (4-5 mice or 3 rats per cage) for 4-5 days. The range of mice body weight was between 19 and 25 grams and range of rats body weight was between 100 and 130 grams.

Test [2] relates to CFA-induced pain model in rats. Kind of test: Antiallodynic activity on Complete Freund's Adjuvant (CFA)-induced inflammatory pain model. It counts as in vivo, Sprague-Dawley rats. As to conditions: 50 mg/kg intraperitoneally, von Frey threshold relative to sham, 0.5 hr after administration; for response vs control in vivo at 50 mg/kg: Rattus norvegicus, ip, read-out: Efficacy of 50 mg/kg(%). On the procedure: Male, Sprague-Dawley rats (210-250 g, Nara Bio, Korea) were habituated for 1 week before surgery and allowed free access to food and water throughout the experimentation. Room temperature and humidity were maintained at 24±2 and 50±10%, respectively.
CFA-induced inflammatory pain was induced by the procedure of Nagakura et al. (2003) and Gregory P. et al. (2010) with minor modifications. CFA (sigma, USA) was injected in the right plantar with a 100 ul volume under gaseous anesthesia with isoflurane. Sham controls were injected with 100 ul of saline, and preparation of the vehicle controls were identical to the group treated with compound, except for administration of vehicles without indentical to the vihecle control group.
Tactile sensitivity (Mechanical allodynia) was evaluated using von Frey monofilaments before and after treatment, and animals were include in the study only if the withdrawal threshold value was less than 4 g. One week after CFA injection, CFA-infused animals, sham-operated animal, and vehicle-operated animals were tested for tactile sensitivity with von Frey monofilaments, with 3 trials for each animal. All Animals were placed in a stainless steel mashe chamber and habituated for 30 min in the test cage. The tactile sensitivity for ipsilateral hind paw was measured using the up-and-down method (Dixon, 1980) with seven von Frey monofilaments (0.4, 1, 2, 4, 6, 8, and 15 g) to 3 trials. The tactile sensitivity test was followed by Dixon's method (Dixon, 1980). The 50% paw withdrawal threshold for each paw was calculated using the following formula: [Xth]log=[vFr]log+ky where [vFr] is the force of the last von Frey used, k=0.2249 which is the average interval (in log units) between the von Frey monofilaments, and y is a value that depends upon the pattern of withdrawal responses (Dixon, 1980).
Antiallodynic effect of compounds was evaluated at the dose of 50 mg/kg (n=4-6), intraperitoneally administrated in a volume of 5 ul/g bw in a vehicle of 30% (v/v) PEG or 20% (v/v) Tween 80. The test was performed peak time of efficacy (0.5 hr) after compound administration.
The relative values compared to the sham (% control) were calculated and shown in Table 5, which show an antiallodynic effect of Compound 1 on CFA-induced pain model in rats.

Test [3] deals with MES (electroshock) seizure in rats. Briefly: Anti-epilepsy activity, MES test in rats. The settings on record: Rattus norvegicus, po. It counts as in vivo, SD rats. On the procedure: as §1
[4] abbreviates: po, read-out: MES test (po) efficacy %.

Turning to `NC(=O)O[C@H]1c2ccc(Cl)cc2CC[C@H]1O` [Example 23, (1S, 2R)-6-chloro-2-hydroxy-1,2,3,4-tetrahydronaphthalen-1-yl carbamate], the responders at 100 mg/kg in test [1] (setting [4]) was 33.3%.

Take `NC(=O)O[C@@H]1CCc2cccc(Cl)c2[C@@H]1OC(N)=O` [Example 29, (1S, 2R)-8-chloro-1,2,3,4-tetrahydronaphthalen-1,2-diyldicarbamate]: the responders at 100 mg/kg in test [1] (setting [4]) is 66.6%. In addition, the response vs control in vivo at 50 mg/kg in test [2] was determined as 30.3%.

Regarding `NC(=O)O[C@H]1CCc2ccc(Cl)cc2[C@H]1O` [Example 7], in test [1] (po, dose 150 mg/kg, read-out: MES test (po) efficacy %), the responders at 150 mg/kg came out at 100%. Moreover, in test [2], the response vs control in vivo at 50 mg/kg stood at 28.6%.

In the case of `NC(=O)O[C@H]1CCc2cccc(I)c2[C@H]1O` [Example 13, (1R, 2S)-1-hydroxy-8-iodo-1,2,3,4-tetrahydronaphthalen-2-yl carbamate], in test [1] (setting [4]), the responders at 100 mg/kg came out at 33.3%. In test [2], the response vs control in vivo at 50 mg/kg amounted to 43.1%.

Take `NC(=O)O[C@@H]1CCc2ccccc2[C@@H]1O` [Example 14, (1S, 2R)-1-hydroxy-1,2,3,4-tetrahydronaphthalen-2-yl carbamate]: in test [1] (setting [4]), the responders at 100 mg/kg came to 100%.

With `NC(=O)O[C@H]1c2ccccc2CC[C@H]1O` [Example 16, (1S, 2R)-2-hydroxy-1,2,3,4-tetrahydronaphthalen-1-yl carbamate], in test [1] (setting [4]), the responders at 100 mg/kg amounted to 50%.

`NC(=O)O[C@H]1Cc2cccc(F)c2[C@H]1O` [Example 56, (1R, 2S)-7-fluoro-1-hydroxy-2,3-dihydro-1H-inden-2-yl carbamate] had an ED50 in test [1] (po) of 45.6 mg/kg. Also, in test [2], the response vs control in vivo at 50 mg/kg is 43.2%.

For the compound `NC(=O)O[C@@H]1Cc2c(Cl)cccc2[C@@H]1O` [Example 68, (1S, 2R)-4-chloro-1-hydroxy-2,3-dihydro-1H-inden-2-yl carbamate], the ED50 in test [3] came out at 14.4 mg/kg; in test [1] (po) it was 61.2 mg/kg.

In the case of `NC(=O)O[C@@H]1CCc2ccc(Cl)cc2[C@@H]1O` [Example 6, (1S, 2R)-7-chloro-1-hydroxy-1,2,3,4-tetrahydronaphthalen-2-yl carbamate], the responders at 100 mg/kg in test [1] (setting [4]) amounted to 33.3%. The response vs control in vivo at 50 mg/kg in test [2] came to 26.8%.

For the compound `NC(=O)O[C@@H]1c2cc(Cl)ccc2CC[C@@H]1O` [Example 22, (1R, 2S)-7-chloro-2-hydroxy-1,2,3,4-tetrahydronaphthalen-1-yl carbamate], the responders at 100 mg/kg in test [1] (setting [4]) is 100%. In test [2], the response vs control in vivo at 50 mg/kg was 35.7%.

On to `NC(=O)O[C@H]1CCc2cccc(I)c2[C@H]1OC(N)=O` [Example 37, (1R, 2S)-8-iodo-1,2,3,4-tetrahydronaphthalen-1,2-diyl dicarbamate], for which the responders at 300 mg/kg in test [1] (setting [4]) was 33.3%.

Take `NC(=O)O[C@H]1c2c(I)cccc2CC[C@H]1O` [Example 27, (1S, 2R)-2-hydroxy-8-iodo-1,2,3,4-tetrahydronaphthalen-1-yl carbamate]: the responders at 200 mg/kg in test [1] (po, dose 200 mg/kg, read-out: MES test (po) efficacy %) stood at 100%. Moreover, the response vs control in vivo at 50 mg/kg in test [2] was found to be 37.8%.

`NC(=O)O[C@H]1CCc2cc(Cl)ccc2[C@H]1O` [Example 9, (1R, 2S)-6-chloro-1-hydroxy-1,2,3,4-tetrahydronaphthalen-2-yl carbamate]: the response vs control in vivo at 50 mg/kg in test [2] worked out at 27.5%.

On to `NC(=O)O[C@@H]1CCc2cccc(I)c2[C@@H]1OC(N)=O` [Example 36, (1S, 2R)-8-iodo-1,2,3,4-tetrahydronaphthalen-1,2-diyl dicarbamate], for which the responders at 300 mg/kg in test [1] (setting [4]) worked out at 33.3%. In test [2], the response vs control in vivo at 50 mg/kg came out at 72.2%.

The compound `NC(=O)O[C@@H]1CCc2cccc(Cl)c2[C@H]1O` [Example 4, (1R, 2R)-8-chloro-1-hydroxy-1,2,3,4-tetrahydronaphthalen-2-yl carbamate] showed an ED50 in test [1] (po) of 80.6 mg/kg.

Regarding `NC(=O)O[C@H]1c2c(F)cccc2C[C@H]1O` [Example 69, (1S, 2R)-7-fluoro-2-hydroxy-2,3-dihydro-1H-inden-1-yl carbamate], the responders at 100 mg/kg in test [1] (setting [4]) stood at 33.3%.

`NC(=O)O[C@H]1Cc2cccc(Cl)c2[C@H]1OC(N)=O` [Example 78, (1R, 2S)-7-chloro-2,3-dihydro-1H-inden-1,2-diyl dicarbamate]: the responders at 100 mg/kg in test [1] (setting [4]) turned out to be 33.3%. The response vs control in vivo at 50 mg/kg in test [2] was found to be 62.3%.

As to `NC(=O)O[C@H]1c2cccc(Cl)c2C[C@H]1O` [Example 62, (1S, 2R)-4-chloro-2-hydroxy-2,3-dihydro-1H-inden-1-yl carbamate], the median effective dose (ED50) is 24.5 mg/kg in test [3] and 53.1 mg/kg in test [1] (po).

For “8-chloro-2-hydroxy-1,2,3,4-tetrahydronaphthalen-1-yl carbamate (mixture of SR & RS) [Example 20]”, the “MES test (po) ED50” value in test [1] amounted to 31.4 mg/kg. Besides, the “Efficacy of 50 mg/kg(%)” value in test [2] is given as 40.2%.

Turning to `NC(=O)O[C@H]1CCc2cccc(Cl)c2[C@H]1OC(N)=O` [Example 30, (1R, 2S)-8-chloro-1,2,3,4-tetrahydronaphthalen-1,2-diyl dicarbamate], the responders at 400 mg/kg in test [1] (po, dose 400 mg/kg, read-out: MES test (po) efficacy %) stood at 33.3%. Moreover, the response vs control in vivo at 50 mg/kg in test [2] turned out to be 28.4%.

Consider `COCO[C@@H]1c2c(Cl)cccc2C[C@@H]1OC(N)=O` [Example 72, (1R, 2S)-7-chloro-1-(methoxymethoxy)-2,3-dihydro-1H-inden-2-yl carbamate], for which the response vs control in vivo at 50 mg/kg in test [2] came to 21.4%.

Turning to `NC(=O)O[C@@H]1CCc2cc(Cl)ccc2[C@@H]1O` [Example 8, (1S, 2R)-6-chloro-1-hydroxy-1,2,3,4-tetrahydronaphthalen-2-yl carbamate], the responders at 100 mg/kg in test [1] (setting [4]) stood at 100%.

Turning to `COCO[C@H]1Cc2cccc(Cl)c2[C@H]1OC(N)=O` [Example 76, (1R, 2S)-7-chloro-2-(methoxymethoxy)-2,3-dihydro-1H-inden-1-yl carbamate], the responders at 100 mg/kg in test [1] (setting [4]) came out at 100%. Besides, the response vs control in vivo at 50 mg/kg in test [2] turned out to be 59.2%.

With `NC(=O)O[C@H]1c2cc(Cl)ccc2CC[C@H]1O` [Example 21, (1S, 2R)-7-chloro-2-hydroxy-1,2,3,4-tetrahydronaphthalen-1-yl carbamate], in test [1] (setting [4]), the responders at 100 mg/kg amounted to 33.3%. The response vs control in vivo at 50 mg/kg in test [2] was determined as 28.9%.

For `NC(=O)O[C@@H]1CCc2ccccc2[C@@H]1OC(N)=O` [Example 38, (1S, 2R)-1,2,3,4-tetrahydronaphthalen-1,2-diyl dicarbamate], the responders at 100 mg/kg in test [1] (setting [4]) came out at 25%.

Turning to `NC(=O)O[C@@H]1c2c(I)cccc2CC[C@@H]1O` [Example 28, (1R, 2S)-2-hydroxy-8-iodo-1,2,3,4-tetrahydronaphthalen-1-yl carbamate], the responders at 100 mg/kg in test [1] (setting [4]) amounted to 100%. Besides, the response vs control in vivo at 50 mg/kg in test [2] was 42.1%.

With `NC(=O)O[C@@H]1CCc2cccc(I)c2[C@@H]1O` [Example 12, (1S, 2R)-1-hydroxy-8-iodo-1,2,3,4-tetrahydronaphthalen-2-yl carbamate], the responders at 100 mg/kg in test [1] (setting [4]) is 100%. Also, the response vs control in vivo at 50 mg/kg in test [2] is 38.5%.
